“And” between values parts separate entries of the source, which are not always exact repeats. Equal entries are not always repeated.
T1: Gal-4 (Homo sapiens, UniProt P56470)
T1 construct: made in house; host or cells: Escherichia coli Rosetta (DE3) pLysS
T1 sequence (P56470 1-323): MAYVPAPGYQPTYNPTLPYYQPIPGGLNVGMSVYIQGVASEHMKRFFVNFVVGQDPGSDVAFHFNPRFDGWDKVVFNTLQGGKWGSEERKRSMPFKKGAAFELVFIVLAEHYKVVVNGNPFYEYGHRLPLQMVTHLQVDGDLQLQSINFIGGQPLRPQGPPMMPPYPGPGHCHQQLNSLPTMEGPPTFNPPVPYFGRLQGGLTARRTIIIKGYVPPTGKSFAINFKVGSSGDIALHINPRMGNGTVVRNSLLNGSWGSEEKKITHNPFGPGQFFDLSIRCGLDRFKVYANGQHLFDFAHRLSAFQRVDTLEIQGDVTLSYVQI

T2: Gal-4NL (Homo sapiens, UniProt P56470)
T2 construct: designated as Gal-4NL (aa 1-160), and Gal-4CL (aa 169-323), respectively; made in house; host or cells: E. coli Rosetta (DE3) pLysS
T2 sequence (P56470 1-160): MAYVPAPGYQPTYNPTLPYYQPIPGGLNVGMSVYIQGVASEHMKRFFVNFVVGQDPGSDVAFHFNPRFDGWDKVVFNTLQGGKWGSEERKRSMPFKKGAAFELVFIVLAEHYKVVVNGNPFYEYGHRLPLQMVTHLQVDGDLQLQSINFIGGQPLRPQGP

T3: Gal-4CL (Homo sapiens, UniProt P56470)
T3 construct: designated as Gal-4NL (aa 1-160), and Gal-4CL (aa 169-323), respectively; made in house; host or cells: E. coli Rosetta (DE3) pLysS
T3 sequence (P56470 169-323): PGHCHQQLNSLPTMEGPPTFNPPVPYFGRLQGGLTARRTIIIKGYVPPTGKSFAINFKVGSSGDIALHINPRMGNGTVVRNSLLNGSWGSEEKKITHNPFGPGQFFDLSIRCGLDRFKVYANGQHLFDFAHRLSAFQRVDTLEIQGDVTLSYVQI

T4: asialofetuin (standard glycoprotein, MW 48.4 kDa) (UniProt P12763 19-359, glycoprotein without sialic acid; carries up to nine LacNAc epitopes)
T4 construct: Asialofetuin (desialylated fetuin), MW 48.4 kDa; Commercial asialofetuin is commonly from fetal calf serum; also called ASF
T4 sequence (looked up): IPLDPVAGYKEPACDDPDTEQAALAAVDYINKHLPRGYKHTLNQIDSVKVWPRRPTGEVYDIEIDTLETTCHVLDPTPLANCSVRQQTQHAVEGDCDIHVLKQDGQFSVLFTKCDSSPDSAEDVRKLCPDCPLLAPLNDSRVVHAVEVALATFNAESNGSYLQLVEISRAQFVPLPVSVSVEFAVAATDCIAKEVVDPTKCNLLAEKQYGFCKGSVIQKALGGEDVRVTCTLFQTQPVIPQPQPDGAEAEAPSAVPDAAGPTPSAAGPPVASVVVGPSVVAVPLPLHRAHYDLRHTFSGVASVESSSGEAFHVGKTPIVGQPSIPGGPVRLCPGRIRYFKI


What was measured:
Gal-4 = molecular target: T1, Gal-4; experiment: competitive ELISA, inhibition of binding of whole Gal-4 to immobilized ASF; conditions: for IC50: competitive ELISA, Gal-4 2.5 µM, immobilized ASF; for rp, relative potency (IC50 (lactose)/IC50 (ligand)): whole Gal-4
Procedure: (§1) To design the ELISA method, we first examined the direct binding of the whole Gal-4, Gal-4NL, and Gal-4-CL to standard glycoprotein asialofetuin (ASF, MW 48.4 kDa), which carries up to nine LacNAc epitopes. The ASF was immobilized by hydrophobic interaction in microtiter-plate wells, and the binding of increasing concentrations of Gal-4 proteins was quantified by colorimetric immunodetection using horseradish peroxidase conjugated to an anti-His-tag antibody. The apparent dissociation constants (KD) were calculated from the non-linear regression of the binding curves (Figure 3). […] While for the Gal-4 ELISA measurement we used the concentration of Gal-4 of 2.5 μM, for both subunits, it was 25 μM. […] The Gal-4 proteins were incubated with increasing concentrations of the respective inhibitors, and the concentration-dependent inhibition of the binding to the immobilized ASF was quantified using spectrophotometric colorimetric immunodetection (HRP-conjugated anti-His-tag antibody). The respective half-maximal inhibition constants (IC50) were calculated from the non-linear regression of the sigmoidal curves (Figure 3), and they are shown in Table 2 and Table 3.
(§2) Each incubation step was followed by washing the wells with 3 × 250 µL phosphate-buffered saline (PBS) containing 0.05% Tween® 20. In total, 0.1 µM ASF in PBS (50 µL/well) was coated onto microtiter plates (Nunc Immuno Sorb, ThermoFisher Scientific, Waltham, MA, USA) overnight. After blocking the wells with 2 mg/mL bovine serum albumin (BSA) in PBS buffer (250 µL/well, 1 h), serial dilutions of the inhibitors in PBS buffer containing 2 mM EDTA (EPBS) were incubated with Gal-4 (2.5 µM final dimer concentration) or its subunits, Gal-4CL and Gal-4NL (25 µM final monomer concentration) for 2 h (50 µL/well). The residual bound galectin was labeled with an anti-His-antibody conjugated with horseradish peroxidase (HRP) (Santa Cruz Biotechnology, Heidelberg, Germany; 1:999 dilution in PBS). The colorimetric reaction with TMB One substrate solution (Kem-En-Tec, Taastrup, Denmark; 50 µL/well) was stopped with 3 M hydrochloric acid (HCl) (50 µL/well) and quantified spectrophotometrically at 450 nm (Sunrise; Tecan Group Ltd., Männedorf, Switzerland). The values of half-maximal inhibitory concentrations (IC50) were calculated by non-linear regression (dose–response inhibition-variable slope) of sigmoidal curves from a minimum of three independent experiments using GraphPad Prism 8.4.3 (GraphPad Software, San Diego, CA, USA).

Gal-4NL [1] = molecular target: T2, Gal-4NL; experiment: competitive ELISA, inhibition of binding of Gal-4NL subunit to immobilized ASF; conditions: for IC50: competitive ELISA, Gal-4NL 25 µM, immobilized ASF
Procedure: as §1, §2

Gal-4CL = molecular target: T3, Gal-4CL; experiment: competitive ELISA, inhibition of binding of Gal-4CL subunit to immobilized ASF; conditions: for IC50: competitive ELISA, Gal-4CL 25 µM, immobilized ASF
Procedure: as §1, §2

Gal-4NL [2] = molecular target: Gal-4NL; set-up: method as in PMID 33968903; conditions: ITC; cited from earlier work
[3] = molecular target: T4, asialofetuin (standard glycoprotein, MW …); experiment: ELISA; direct ELISA; ASF (0.1 µM in PBS) coated on microtiter plate overnight, blocked with BSA; increasing concentrations of Gal-4 or its subunits, 2 h; detected with HRP-conjugated anti-His antibody; apparent KD from non-linear regression; conditions: both partners purified
[4] = dynamic light scattering (DLS) of Gal-4 and its subunits in solution; assay type: physicochemical; conditions: 25 µM, 25 °C
Procedure: Therefore, we decided to obtain more insights into the potential aggregation behavior of the Gal-4 subunits in solution, which, theoretically, might have contributed to the multivalency effect, even with the monovalent Gal-4 subunits. The hydrodynamic radii of the whole Gal-4 and its subunits in the concentrations used in the ELISA assay (25 µM) were assessed using dynamic light scattering (DLS). This method provided information about the size distribution of the particles in the samples (Table 4). […] Therefore, the larger particles seemed to be more abundant in these distribution diagrams because light scattering is proportional to the sixth power of the scattering-matter diameter. To avoid misinterpretation, we also present the volume-weighed size distributions in Table 4, which highlight the most abundant populations of particles. These values indicate that in the cases of the whole Gal-4 and Gal-4CL, the large aggregates at 1200 nm and 400 nm, respectively, can be neglected (the volume-weighted size distributions accounted for 9 and 7 nm, respectively). The whole Gal-4 formed the most abundant particles, of 11 nm, which was similar to Gal-4CL with 8 nm particles. In the case of Gal-4NL, the solution was more polydisperse, and two significant populations were observed. The first population, of 1.3 nm, probably represented the individual Gal-4NL subunits, whereas the slightly larger population of 16 nm belonged to the aggregated species.
The hydrodynamic diameter of the Gal-4 and its subunits (25 μM) was measured by dynamic light scattering (DLS) using Zetasizer Nano S90 (Malvern Instruments Ltd., Malvern, UK) at 25 °C. The light scattered at θ = 173° from the incident light was fitted to an autocorrelation function using the method of cumulants (Malvern Instruments Ltd., Malvern, UK). The hydrodynamic diameters were determined from five independent repetitions (10–50 runs) in Malvern disposable plastic cuvettes. The particle-size distribution was determined by analyzing the multimodal peak by intensity and volume.

IC50 (Gal-4) [mM]	rp, relative potency (IC50 (lactose)/IC50 (ligand)) (Gal-4)	rp Gal-4NL, relative potency (IC50 (lactose)/IC50 (ligand)) (Gal-4NL [1])	IC50 (Gal-4NL [1]) [µM]	rp Gal-4CL, relative potency (IC50 (lactose)/IC50 (ligand)) (Gal-4CL)	IC50 (Gal-4CL) [µM]	Molecule	further results
1.18 ± 0.05	2.1	0.8	3500 ± 200	1.5	5800 ± 500	CC(=O)N[C@H]1C(O)O[C@H](CO)[C@H](O)[C@@H]1O[C@@H]1O[C@H](CO)[C@H](O)[C@H](O)[C@H]1O (stereo partly drawn) [TF antigen motif (9), β-D-galactopyranosyl-(1→3)-2-acetamido-2-deoxy-D-galactopyranose]	–
0.43 ± 0.07	5.9	14	210 ± 30	18.3	470 ± 900	CC(=O)N[C@H]1[C@H](O[C@H]2[C@@H](O)[C@@H](CO)O[C@@H](O[C@H]3[C@H](O)[C@@H](O)C(O)O[C@@H]3CO)[C@@H]2O)O[C@H](CO)[C@@H](O)[C@@H]1O[C@@H]1O[C@H](CO)[C@H](O)[C@H](O)[C@H]1O (stereo partly shown) [lacto-N-tetraose (3), lacto-N-tetraose]	–
2.5	–	–	–	–	–	CC(C)(C)OC(=O)NCCNC(=S)N[C@@H]1O[C@H](CO)[C@@H](O[C@@H]2O[C@H](CO)[C@H](O)[C@H](O)[C@H]2O)[C@H](O)[C@H]1O [lactosyl-tBoc 10]	–
0.08 ± 0.03	31	11	260 ± 10	28	300 ± 30	C[C@@H]1O[C@@H](O[C@H]2[C@H](O[C@H]3[C@H](O)[C@@H](O)C(O)O[C@@H]3CO)O[C@H](CO)[C@H](O)[C@@H]2O[C@H]2O[C@H](CO)[C@H](O)[C@H](O)[C@H]2O)[C@@H](O)[C@H](O)[C@@H]1O (stereo partly shown) [blood-group antigen B (6), blood-group antigen B type 6]	Kd (Gal-4NL [2]): 51 µM
0.6 ± 0.1	4.1	7.3	400 ± 100	10	800 ± 300	CC(=O)N[C@H]1[C@H](O[C@H]2[C@@H](O)[C@@H](CO)O[C@@H](O[C@H]3[C@H](O)[C@@H](O)C(O)O[C@@H]3CO)[C@@H]2O)O[C@H](CO)[C@@H](O[C@@H]2O[C@H](CO)[C@H](O)[C@H](O)[C@H]2O)[C@@H]1O (stereo partly shown) [lacto-N-neotetraose (4), lacto-N-neotetraose]	–
2.5 ± 0.2	1.0	1.0	2900 ± 400	1.0	8600 ± 1100	OC[C@H]1O[C@@H](O[C@H]2[C@H](O)[C@@H](O)[C@H](O)O[C@@H]2CO)[C@H](O)[C@@H](O)[C@H]1O [lactose (1), lactose]	–
–	–	–	–	–	–	Galectin-4 (whole, His6-tagged construct of human Gal-4) (natural protein, UniProt P56470 1-323, looked up, Galectin-4, human, whole protein (two CRDs joined by the linker peptide); also called whole Gal-4; total Gal-4; not shown: His6, N-terminal, kept) MAYVPAPGYQPTYNPTLPYYQPIPGGLNVGMSVYIQGVASEHMKRFFVNFVVGQDPGSDVAFHFNPRFDGWDKVVFNTLQGGKWGSEERKRSMPFKKGAAFELVFIVLAEHYKVVVNGNPFYEYGHRLPLQMVTHLQVDGDLQLQSINFIGGQPLRPQGPPMMPPYPGPGHCHQQLNSLPTMEGPPTFNPPVPYFGRLQGGLTARRTIIIKGYVPPTGKSFAINFKVGSSGDIALHINPRMGNGTVVRNSLLNGSWGSEEKKITHNPFGPGQFFDLSIRCGLDRFKVYANGQHLFDFAHRLSAFQRVDTLEIQGDVTLSYVQI	Kd [3]: 3.3 ± 1.1 µM
–	–	–	–	–	–	Gal-4NL: N-terminal subunit of Gal-4 (aa 1-160) with 10-amino-acid linker, His-tagged (protein, left off: His6, N-terminal, kept, N-terminal subunit of Gal-4 (aa 1-160) with 10-amino-acid linker, His-tagged) MAYVPAPGYQPTYNPTLPYYQPIPGGLNVGMSVYIQGVASEHMKRFFVNFVVGQDPGSDVAFHFNPRFDGWDKVVFNTLQGGKWGSEERKRSMPFKKGAAFELVFIVLAEHYKVVVNGNPFYEYGHRLPLQMVTHLQVDGDLQLQSINFIGGQPLRPQGP	Intensity-Weighed Size Distribution Area (first population) [4]: 13%; Intensity-Weighed Size Distribution Area (second population) [4]: 50%; Intensity-Weighed Size Distribution Size (first population) [4]: 1.3 nm and 1.3 ± 0.3 nm; Intensity-Weighed Size Distribution Size (second population) [4]: 16 nm and 16 ± 7 nm; PDI, polydispersity index [4]: 0.4; Volume-Weighted Size Distribution Area [4]: 100%; Volume-Weighted Size Distribution Size [4]: 3 ± 1 nm

Molecule	IC50 (Gal-4) [mM]	rp, relative potency (IC50 (lactose)/IC50 (ligand)) (Gal-4)	rp Gal-4NL, relative potency (IC50 (lactose)/IC50 (ligand)) (Gal-4NL [1])	IC50 (Gal-4NL [1]) [µM]	rp Gal-4CL, relative potency (IC50 (lactose)/IC50 (ligand)) (Gal-4CL)	IC50 (Gal-4CL) [µM]	further results
C[C@@H]1O[C@@H](O[C@H]2[C@H](O[C@H]3[C@H](O)[C@@H](O)C(O)O[C@@H]3CO)O[C@H](CO)[C@H](O)[C@@H]2O)[C@@H](O)[C@H](O)[C@@H]1O (stereo partly shown) [2′-fucosyllactose (2), 2′-fucosyllactose]	1.5 ± 0.2	1.7	4.8	600 ± 60	7.8	1100 ± 100	–

Source: article PMC10223884, “Oligosaccharide Ligands of Galectin-4 and Its Subunits: Multivalency Scores Highly” (Molecules, 2023)
